Assays:
chymotrypsin = chymotrypsin (Bos taurus, UniProt P00766); assay: in vitro; conditions: isolated enzyme chymotrypsin, pH 7.8, Remaining peak area (%)/chymotrypsin
How it was run: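 Peptide and 0.05 μg/μL chymotrypsin were preincubated at 37 °C for 5 min, then mixed. Aliquots taken from 1.5 up to 60.0 min were quenched with 10% TFA, and remaining peptide was measured as RP-HPLC peak area.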

trypsin = biological target: T1, trypsin (Bos taurus, UniProt P00760); assay: in vitro; conditions: isolated enzyme trypsin, pH 7.8
T1 sequence (P00760 24-246): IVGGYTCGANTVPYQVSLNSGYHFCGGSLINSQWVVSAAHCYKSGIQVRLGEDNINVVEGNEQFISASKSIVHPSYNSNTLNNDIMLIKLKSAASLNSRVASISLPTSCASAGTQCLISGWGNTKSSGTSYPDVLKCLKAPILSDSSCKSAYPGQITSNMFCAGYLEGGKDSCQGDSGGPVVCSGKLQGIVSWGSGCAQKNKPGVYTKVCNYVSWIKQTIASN
How it was run: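 Peptides were preincubated for 5 min at 37 °C and then digested with 0.05 μg/μL trypsin solution (stock). Remaining intact peptide was quantified as RP-HPLC peak area.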

[1] = Stability of GLP-1 and its analogues in human serum; conditions: 25% (v/v) human serum
Method: The amount of the prototype peptide at 0 h was taken as 100%. At different time point, 100 μL aliquots was taken out, and 300 μL precooled anhydrous methanol was added to terminate the reaction. The remaining percentage (%) of the peptide relative to the prototype peptide at that time point was analyzed by reverse phase high performance liquid chromatography. The experiment was performed with three replicates, and data were expressed as “mean±standard deviation”. The sample was subjected to high-speed centrifugation, supernatant extraction, and freeze drying, followed by dissolution in 50% (v/v) methanol/water solution, and analyzed by reverse phase high performance liquid chromatography. The experiment was performed with three replicates, and data were expressed as “mean±standard deviation”.
Invert and mix thoroughly, then leave at −20° C. overnight. At the same time, take three sterile EP tubes and add 25 μL of human serum, 75 μL of 50 mM Tris-HCl buffer (pH7.0), and 300 μL of pre-cold absolute methanol. Invert and mix thoroughly, then leave at −20° C. overnight as a negative control, so as to eliminate the interference of proteins or peptides contained in human serum at the peak time of the target peptide after methanol precipitation.
Arrange a certain volume of human serum in another sterile EP. Incubate the EP tubes containing peptides and serum at 37° C. for 10 min, and add 137.5 μL of human serum to each EP tube containing peptides and mix well. […] Start timing and remove 100 μL of reaction solution at 0.5, 2.0, 4.0, 8.0, and 12.0 h later, respectively. Add 300 μL of pre-cold absolute methanol. Invert and mix thoroughly, then leave at −20° C. overnight. […] There are three replicates at each time point, and the peak area of the peptide at each time point is detected using reverse phase high-performance liquid chromatography (RP-HPLC). The ratio of the remaining peak area of the sample at detection time T (h) to the peak area of the prototype peptide at 0 h is calculated as the remaining percentage (%) of the peptide.

DPP-IV = DPP-IV (Homo sapiens, UniProt P27487); assay: Tolerance of GLP-1 and its analogues to DPP-IV (RP-HPLC remaining peak area); assay type: in vitro ADME; conditions: peptide 25 μM, DPP-IV 0.5 ng/μL, 37° C.; for Remaining peak area (%)/DPP-IV: 0.0 h; for remaining at 0.5 h, 25 μM / remaining at 2 h, 25 μM / remaining at 4 h, 25 μM / remaining at 8 h, 25 μM / remaining at 12 h, 25 μM: isolated DPP-IV enzyme in buffer, pH 8
DPP-IV, sequence (P27487 whole entry, species assumed): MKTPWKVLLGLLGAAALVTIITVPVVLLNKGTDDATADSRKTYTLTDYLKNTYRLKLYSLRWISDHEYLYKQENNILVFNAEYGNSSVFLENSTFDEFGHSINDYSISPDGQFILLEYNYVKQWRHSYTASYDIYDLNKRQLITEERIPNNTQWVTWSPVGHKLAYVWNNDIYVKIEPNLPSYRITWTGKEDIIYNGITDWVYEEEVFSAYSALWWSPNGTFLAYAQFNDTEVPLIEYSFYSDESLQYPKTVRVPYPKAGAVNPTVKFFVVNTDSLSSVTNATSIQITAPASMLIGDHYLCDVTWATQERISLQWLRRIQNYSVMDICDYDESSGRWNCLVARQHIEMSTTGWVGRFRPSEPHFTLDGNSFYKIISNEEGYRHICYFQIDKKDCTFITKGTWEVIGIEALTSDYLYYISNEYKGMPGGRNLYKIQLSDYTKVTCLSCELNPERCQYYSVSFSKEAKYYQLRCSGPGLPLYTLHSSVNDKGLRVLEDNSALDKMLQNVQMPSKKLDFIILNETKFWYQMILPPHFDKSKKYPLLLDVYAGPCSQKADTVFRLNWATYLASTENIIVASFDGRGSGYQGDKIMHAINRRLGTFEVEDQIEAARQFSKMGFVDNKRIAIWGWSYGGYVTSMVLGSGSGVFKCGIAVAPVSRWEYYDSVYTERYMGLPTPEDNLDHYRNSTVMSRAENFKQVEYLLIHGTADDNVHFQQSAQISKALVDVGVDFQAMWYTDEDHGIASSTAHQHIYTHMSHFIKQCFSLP
Method: (§1) Mix by centrifugation at 8000 rpm for 30 seconds.
(2) Arrange a certain volume of 0.005 μg/μL DPP-IV solution in another sterile EP.

NEP24.11 = NEP24.11 (Homo sapiens, UniProt P08473); assay: Tolerance of GLP-1 and its analogues to NEP24.11 (RP-HPLC remaining peak area); assay type: in vitro ADME; conditions: peptide 30 μM, NEP24.11 1.0 ng/μL; for Remaining peak area (%)/NEP24.11: 0.0 h; for Remaining peak area (%)/NEP24.11 / remaining at 0.5 h, 30 μM / remaining at 2 h, 30 μM / remaining at 4 h, 30 μM / remaining at 8 h, 30 μM: 37° C.; for remaining at 0.5 h, 30 μM / remaining at 2 h, 30 μM / remaining at 4 h, 30 μM / remaining at 8 h, 30 μM: isolated NEP24.11 enzyme in buffer; for remaining at 0.5 h, 30 μM: pH 7.4, 0.5 h; for remaining at 2 h, 30 μM: pH 7.4, 2.0 h; for remaining at 4 h, 30 μM: pH 7.4, 4.0 h; for remaining at 8 h, 30 μM: pH 7.4, 8.0 h, read-out: Remaining peak area (%)/NEP24.11
NEP24.11, sequence (P08473 whole entry): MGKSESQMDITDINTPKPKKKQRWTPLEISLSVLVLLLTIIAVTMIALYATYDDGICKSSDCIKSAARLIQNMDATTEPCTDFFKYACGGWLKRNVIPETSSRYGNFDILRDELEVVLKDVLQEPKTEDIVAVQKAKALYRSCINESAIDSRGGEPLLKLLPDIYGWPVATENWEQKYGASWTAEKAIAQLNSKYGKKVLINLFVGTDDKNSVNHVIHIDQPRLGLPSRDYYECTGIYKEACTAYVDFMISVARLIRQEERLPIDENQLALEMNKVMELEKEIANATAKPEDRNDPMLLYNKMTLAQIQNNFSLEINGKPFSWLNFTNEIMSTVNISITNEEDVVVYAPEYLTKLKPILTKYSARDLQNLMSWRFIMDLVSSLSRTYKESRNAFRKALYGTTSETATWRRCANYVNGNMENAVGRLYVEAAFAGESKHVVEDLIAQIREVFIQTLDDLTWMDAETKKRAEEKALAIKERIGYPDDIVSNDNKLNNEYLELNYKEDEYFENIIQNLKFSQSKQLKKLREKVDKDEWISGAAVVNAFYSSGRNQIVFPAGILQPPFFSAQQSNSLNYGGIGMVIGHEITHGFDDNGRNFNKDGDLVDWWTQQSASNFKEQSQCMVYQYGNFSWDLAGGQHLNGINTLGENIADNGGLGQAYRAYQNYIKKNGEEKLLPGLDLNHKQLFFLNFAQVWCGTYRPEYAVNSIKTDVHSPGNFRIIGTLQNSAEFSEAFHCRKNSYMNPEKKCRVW
Method: as §1
Arrange a certain volume of 0.04 μg/μL NEP24.11 enzyme solution in another sterile EP.

Row | SMILES | remaining at 0.025 h, 60 μM (chymotrypsin) | remaining at 0.075 h, 60 μM (chymotrypsin) | remaining at 0.1 h, 60 μM (chymotrypsin) | remaining at 0.15 h, 60 μM (chymotrypsin) | remaining at 0.025 h, 60 μM (trypsin) | remaining at 0.05 h, 60 μM (trypsin) | remaining at 0.075 h, 60 μM (trypsin) | remaining at 0.1 h, 60 μM (trypsin) | remaining at 0.15 h, 60 μM (trypsin) | Remaining peak area (%)/DPP-IV (DPP-IV) | remaining at 0.5 h, 25 μM (DPP-IV) | remaining at 2 h, 25 μM (DPP-IV) | remaining at 4 h, 25 μM (DPP-IV) | remaining at 8 h, 25 μM (DPP-IV) | remaining at 12 h, 25 μM (DPP-IV) | Remaining peak area (%)/NEP24.11 (NEP24.11) | remaining at 0.5 h, 30 μM (NEP24.11) | remaining at 2 h, 30 μM (NEP24.11) | remaining at 4 h, 30 μM (NEP24.11) | remaining at 8 h, 30 μM (NEP24.11) | also measured
1 | CC[C@H](C)[C@H](NC(=O)[C@H](Cc1ccccc1)NC(=O)[C@H](CCC(=O)O)NC(=O)[C@H](CCCCN)NC(=O)[C@H](C)NC(=O)[C@H](C)NC(=O)[C@H](CCC(N)=O)NC(=O)CNC(=O)[C@H](CCC(=O)O)NC(=O)[C@H](CC(C)C)NC(=O)[C@H](Cc1ccc(O)cc1)NC(=O)[C@H](CO)NC(=O)[C@H](CO)NC(=O)[C@@H](NC(=O)[C@H](CC(=O)O)NC(=O)[C@H](CO)NC(=O)[C@@H](NC(=O)[C@H](Cc1ccccc1)NC(=O)[C@@H](NC(=O)CNC(=O)[C@H](CCC(=O)O)NC(=O)[C@H](C)NC(=O)[C@H](Cc1c[nH]cn1)NC(=O)CNC(=O)CNC(=O)[C@@H](NC(=O)[C@@H]1CCCN1C(=O)[C@@H](NC(=O)CNC(=O)CNC(=O)[C@H](Cc1ccccc1)NC(=O)[C@@H]1CSSC[C@H](N)C(=O)NCC(=O)N[C@@H](CCCNC(=N)N)C(=O)N[C@@H](C)C(=O)N[C@@H]([C@@H](C)O)C(=O)N[C@@H](CCCCN)C(=O)N[C@@H](CO)C(=O)N[C@@H]([C@@H](C)CC)C(=O)N2CCC[C@H]2C(=O)N2CCC[C@H]2C(=O)N[C@@H]([C@@H](C)CC)C(=O)N1)[C@@H](C)CC)[C@@H](C)CC)[C@@H](C)O)[C@@H](C)O)C(C)C)C(=O)N[C@@H](C)C(=O)N[C@@H](Cc1c[nH]c2ccccc12)C(=O)N[C@@H](CC(C)C)C(=O)N[C@H](C(=O)N[C@@H](CCCCN)C(=O)NCC(=O)N[C@@H](CCCNC(=N)N)C(=O)NCC(=O)NCC(=O)N[C@@H](CCCCN)C(=O)O)C(C)C [BT9-D-GLP-1] | 54.9 ± 6.6% | 28.7 ± 2.4% | 19.2 ± 1.3% | 9 ± 0.9% | 76.6 ± 3% | 76.7 ± 9.1% | 77 ± 2.4% | 79.2 ± 3.1% | 80.2 ± 1% | 100.0 ± 0.0% | 81.1 ± 1% | 77.9 ± 2.9% | 79.1 ± 1.3% | 78.8 ± 0.6% | 72.4 ± 1.9% | 100.0 ± 0.0% | 79.8 ± 3.5% | 60.2 ± 1.8% | 56.1 ± 3.4% | 48.4 ± 1.4% | remaining at 0.25 h, 60 μM (trypsin): 79.1 ± 2.2%; remaining at 0.5 h, 60 μM (trypsin): 75.8 ± 3.8%; remaining at 1 h, 60 μM (trypsin): 77.7 ± 0.5%; Remaining peak area (%)/human serum ([1]; 0.0 h, peptide 0.03 mM, 37° C.): 100.0 ± 0.0%; serum stability (in words) [1]: good serum stability; remaining at 0.5 h, 0.03 mM ([1]; human, pH 7): 65.6 ± 14.7%; remaining at 2 h, 0.03 mM ([1]; human, pH 7): 38.5 ± 13.3%; remaining at 4 h, 0.03 mM ([1]; human, pH 7): 28%; remaining at 8 h, 0.03 mM ([1]; human, pH 7): 13.7%; remaining at 12 h, 0.03 mM ([1]; human, pH 7): 19.6 ± 1.2%
2 | CC[C@H](C)[C@H](NC(=O)[C@H](Cc1ccccc1)NC(=O)[C@H](CCC(=O)O)NC(=O)[C@H](CCCCN)NC(=O)[C@H](C)NC(=O)[C@H](C)NC(=O)[C@H](CCC(N)=O)NC(=O)CNC(=O)[C@H](CCC(=O)O)NC(=O)[C@H](CC(C)C)NC(=O)[C@H](Cc1ccc(O)cc1)NC(=O)[C@H](CO)NC(=O)[C@H](CO)NC(=O)[C@@H](NC(=O)[C@H](CC(=O)O)NC(=O)[C@H](CO)NC(=O)[C@@H](NC(=O)[C@H](Cc1ccccc1)NC(=O)[C@@H](NC(=O)CNC(=O)[C@H](CCC(=O)O)NC(=O)[C@H](C)NC(=O)[C@H](Cc1c[nH]cn1)NC(=O)CNC(=O)CNC(=O)[C@H](CCCNC(=N)N)NC(=O)[C@H](CO)NC(=O)[C@H](Cc1ccccc1)NC(=O)[C@H](CCCNC(=N)N)NC(=O)[C@H](CCC(N)=O)NC(=O)CNC(=O)CN)[C@@H](C)O)[C@@H](C)O)C(C)C)C(=O)N[C@@H](C)C(=O)N[C@@H](Cc1c[nH]c2ccccc12)C(=O)N[C@@H](CC(C)C)C(=O)N[C@H](C(=O)N[C@@H](CCCCN)C(=O)NCC(=O)N[C@@H](CCCNC(=N)N)C(=O)NCC(=O)NCC(=O)N[C@@H](CCCCN)C(=O)O)C(C)C [N-GLP-1] | 65.8 ± 2.6% | 66.2 ± 1.9% | 60.9 ± 0.8% | 45.8 ± 5.4% | 16.9 ± 1.6% | 3.7 ± 5.3% | 1.2 ± 1.7% | 0% | 0% | 100.0 ± 0.0% | 73.9 ± 5% | 76.9 ± 3% | 79.6 ± 2.3% | 74.9 ± 5.3% | 74.6 ± 10.1% | 100.0 ± 0.0% | 83.9 ± 2.8% | 54.9 ± 13.6% | 51 ± 6.5% | 56.4 ± 15.8% | remaining at 0.05 h, 60 μM (chymotrypsin): 69.3 ± 4%; remaining amount after NEP24.11 hydrolysis (NEP24.11; 8 hours): about 56.4%
